Molecular target: gamma-aminobutyric acid type A (GABAA) receptor α1(L264T)β2γ2L (Homo sapiens, UniProt P14867+P47870, P14867:L291T)
Experiment: cell-based

gamma-aminobutyric acid type A (GABAA) receptor α1(L264T)β2γ2L, sequence (P14867 28-456 L291T): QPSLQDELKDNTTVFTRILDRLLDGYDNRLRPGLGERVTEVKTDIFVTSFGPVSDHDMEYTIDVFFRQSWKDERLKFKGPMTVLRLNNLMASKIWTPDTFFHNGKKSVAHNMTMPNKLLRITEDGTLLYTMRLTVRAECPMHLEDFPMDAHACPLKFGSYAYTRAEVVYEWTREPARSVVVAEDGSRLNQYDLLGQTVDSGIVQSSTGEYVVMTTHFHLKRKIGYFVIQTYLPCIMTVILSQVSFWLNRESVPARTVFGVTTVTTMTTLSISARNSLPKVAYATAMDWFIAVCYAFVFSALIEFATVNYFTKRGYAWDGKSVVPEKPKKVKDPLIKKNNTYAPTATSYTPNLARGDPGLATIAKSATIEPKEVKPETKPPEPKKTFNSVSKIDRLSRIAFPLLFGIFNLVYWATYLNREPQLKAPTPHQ
gamma-aminobutyric acid type A (GABAA) receptor α1(L264T)β2γ2L, sequence (P47870 26-512): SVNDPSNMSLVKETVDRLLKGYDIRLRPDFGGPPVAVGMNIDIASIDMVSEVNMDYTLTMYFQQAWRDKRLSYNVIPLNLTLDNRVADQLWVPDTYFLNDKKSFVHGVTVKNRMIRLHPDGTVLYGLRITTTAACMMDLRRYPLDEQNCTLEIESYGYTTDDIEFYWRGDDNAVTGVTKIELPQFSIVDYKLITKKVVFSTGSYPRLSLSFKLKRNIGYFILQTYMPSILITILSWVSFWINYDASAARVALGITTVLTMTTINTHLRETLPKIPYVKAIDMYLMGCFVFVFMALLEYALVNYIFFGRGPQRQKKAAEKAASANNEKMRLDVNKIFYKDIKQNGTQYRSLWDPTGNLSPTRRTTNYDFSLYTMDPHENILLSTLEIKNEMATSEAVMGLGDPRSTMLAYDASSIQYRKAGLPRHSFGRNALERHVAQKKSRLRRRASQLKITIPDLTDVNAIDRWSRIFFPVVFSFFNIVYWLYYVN
gamma-aminobutyric acid type A (GABAA) receptor α1(L264T)β2γ2L, sequence (P18507 40-475 partner): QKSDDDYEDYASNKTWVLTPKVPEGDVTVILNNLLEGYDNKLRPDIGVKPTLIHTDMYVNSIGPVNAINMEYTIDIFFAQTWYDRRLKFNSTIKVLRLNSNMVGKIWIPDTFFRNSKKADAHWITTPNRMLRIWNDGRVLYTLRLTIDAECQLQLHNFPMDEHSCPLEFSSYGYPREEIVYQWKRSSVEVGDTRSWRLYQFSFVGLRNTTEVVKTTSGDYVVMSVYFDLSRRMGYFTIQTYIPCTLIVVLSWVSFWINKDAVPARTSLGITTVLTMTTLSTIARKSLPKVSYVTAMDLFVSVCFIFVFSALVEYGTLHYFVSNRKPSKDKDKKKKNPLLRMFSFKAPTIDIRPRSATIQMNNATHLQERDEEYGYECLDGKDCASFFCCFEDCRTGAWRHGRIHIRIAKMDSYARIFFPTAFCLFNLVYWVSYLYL

| Structure (SMILES) | EC50 [µM] |
| --- | --- |
| C[C@H](c1ccccc1)n1cncc1C(=O)OCCC(=O)O [MOC-ECA] | 3500 ± 630 |
| COC(=O)CCOC(=O)c1cncn1[C@H](C)c1ccccc1 [MOC-etomidate, methoxycarbonyl etomidate] | 10 ± 2.5 |
